Experimental data published in patent US7550587B2, “Photosensitizer and method for production thereof” (priority 2001, dated 2009).

Conditions: mouse, in vivo
Experimental: The mice were slaughtered 3 hours after injection (each group consisted of 3 mice). The materials of liver, kidney, spleen, lungs, small intestines, tumor, surrounding muscle tissue as well as from blood, urine, faeces from large intestine weighing 100 mg each were thoroughly homogenised in glass homogenizers supplementing 4 ml of saline solution. For examination of biological fluids (blood, urine) 0,1 ml of each fluid were taken with subsequent dissolution in 4 ml of saline solution. The resulting homogenates were studied on “Perkin-Elmer” spectrofluorimeter (MPF-44A model).

13-carboxy-17-[2-carboxyethyl]-15-formyl-17,18-trans-dihydro-3-vinyl-8-ethyl-2,7,12,18-tetramethylporphyrin [purpurin 5]
time interval of tumour accumulation optimal for photodynamic effect according to selectivity: 3 to 18 h
